For one assay, the target named is T1, Rad51 (Homo sapiens, UniProt Q06609).
T1 sequence (Q06609 1-339): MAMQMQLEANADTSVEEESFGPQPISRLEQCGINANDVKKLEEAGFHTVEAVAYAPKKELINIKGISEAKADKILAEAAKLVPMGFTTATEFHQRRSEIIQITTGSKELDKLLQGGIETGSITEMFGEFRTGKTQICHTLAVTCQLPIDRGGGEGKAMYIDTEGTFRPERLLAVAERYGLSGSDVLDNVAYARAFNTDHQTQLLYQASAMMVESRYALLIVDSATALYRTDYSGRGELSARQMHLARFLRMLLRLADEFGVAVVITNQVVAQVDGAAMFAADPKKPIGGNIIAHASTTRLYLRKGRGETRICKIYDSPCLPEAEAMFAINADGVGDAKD
Description: RAD51 nucleofilament formation by Bio-Layer Interferometry (BLItz), binding of Rad51 to ssDNA. The protocol: The binding of Rad51 to ssDNA was monitored and quantified by Bio-Layer Interferometry technology using the BLItz platform (FortéBio Inc.). The procedure includes four steps: (1) the baseline in buffer A containing 1×PBS, 10 mM MgCl2 and 0.0075% Tween20 was recorded for 20 s; (2) loading and binding of Rad51 were measured for 40 s using 1.5 μM Rad51 and 1 mM ATP in buffer A; (3) the dissociation of Rad51 from ssDNA was recorded for 20 s in buffer A; (4) the ssDNA biosensor was regenerated using baths of 50 mM NaOH. Except for the step 2, which used 4 μL drop of the protein sample, the steps 1, 3 and 4 used 250 μL solutions in 0.5 mL tube. The measurement parameters were as follows: room temperature measurement and stirring speed of 2200 rpm. To investigate the effect of CSB and analogs to the ssDNA binding of Rad51, the molecule was included in the protein sample of the step 2 at the indicated concentrations and incubated for 5 min before loading on the biosensor. (Normand, A. et al., “Identification and characterization of human Rad51 inhibitors by screening of an existing drug library.”, Biochemical Pharmacology, October 2014, Vol. 91, No. 3, pp. 293-300).
A test based on interferometry (Blitz®, Fortebio) allows the measure of the association kinetics of RAD51 protein with a single-stranded DNA immobilized on a biosensor support in the presence or absence of an inhibitor. The effect of compounds B-1, B-2, B-3, BPQ and X-4 on RAD51 nucleofilament formation has been evaluated in presence of increasing doses of inhibitors. The results are presented on FIG. 2.

Another assay deals with T2, HsRad51 (Homo sapiens, UniProt Q06609).
T2 sequence (Q06609 1-339): T1 sequence (Q06609 1-339)
As to the kind of experiment: RAD51 oligomerization by SDS-PAGE gel after crosslink. The assay is classed as biochemical. As to conditions: 2.5 μM HsRad51, disuccinimidyl suberate crosslink, SDS-PAGE/Western blot; FIG. 1. The protocol: The reaction was performed at room temperature. 2.5 μm HsRad51 was incubated with the indicated concentrations of tested compounds for 10 min in a buffer containing 20 mm sodium phosphate, 50 mm NaCl, 1 mm MgCl 2, and 1 mm ATP. The cross-linking reactions were initiated by the addition of disuccinimidyl suberate (50 μm) and allowed to proceed for 30 min. Reactions were quenched by the addition of Tris-HCl (pH 7.5, final concentration: 50 mm) followed by subsequent incubations for 15 min. The products were then separated by 12% SDS polyacrylamide gel electrophoresis and detected by Western blot with mouse monoclonal anti-Rad51 antibody (NeoMarkers) and anti-mouse Alexa-Fluor 700-conjugated secondary antibody (Molecular Probes, Eugene, OR). The cross-linked dimer was quantified by an Odyssey Infrared Imaging System scanner (Li-Cor Biosciences) (Martinez, S. F. et al., “Targeting human Rad51 by specific DNA aptamers induces inhibition of homologous recombination”, Biochimie, December 2010, Vol. 92, No. 12, pp. 1832-1838).
The SDS-PAGE electrophoresis after crosslink maintains and immobilizes the RAD51 protein complexes and thus allows visualization of the degree of oligomerization (polymer formation) of the RAD51 protein. The effect of RAD51 protein inhibitors B-1, B-2, B-3, DIDS and X-4 on this key step of RAD51 protein recombinase activity has thus been evaluated. The results are presented on FIG. 1.
(In general: Immunoblotting shows a protein as a band on a membrane.)

Entries after “also recorded” stand apart in the source; their conditions may differ.

With `N#Cc1ccc(/C=C/c2ccc(C#N)cc2S(=O)(=O)[O-])c(S(=O)(=O)[O-])c1.[Na+].[Na+]` [B-2, Sodium (E)-6,6′-(ethene-1,2-diyl)bis(3-cyanobenzenesulfonate)], the “activity on nucleofilament formation compared with reference molecule BPQ” value on Rad51 (FIG. 2) was “comparable to or even better”. Further, the “effect on nucleofilament formation compared with DIDS” value on Rad51 (high dose (50 μM)) is reported as “same effect”. Besides, at Rad51 (increasing doses of inhibitors, FIG. 2), the “formation of RAD51 protein nucleofilament (relative binding of RAD51 protein with single-stranded DNA)” value is given as “inhibit; also recorded: very strongly diminished”. The “activity on nucleofilament formation compared with reference molecule DIDS” value on Rad51 (low dose (5 μM)) is recorded as “comparable”. For the same compound, the “oligomerization state of RAD51 protein” value at HsRad51 is given as “significant reduction; also recorded: very strongly diminished”.

For the origin of these results see patent publication US12233041B2, “Disulfonate stilbenes for use in the treatment of proliferative diseases” (UNIVERSITÉ DE NANTES, priority 2018, dated 2025).
